Assay results reported in patent publication US20160237059A1, “HETEROCYCLIC SUBSTITUTED TRIFLUOROMETHYL PYRIMIDINONES AND THEIR USE” (BAYER PHARMA AKTIENGESELLSCHAFT, priority 2013, published 2016).

Key:
Format in all cases: cell-based
human CCR2 = biological target: T1, human CCR2 (Homo sapiens, UniProt P41597); assay: Functional Ca2+ release test (B-1); details: Chem-1 cell line transfected with human CCR2; 50% inhibition of the MCP-1 effect, MCP-1 at EC50 (about 5 nM); in some cases means of several determinations
T1 construct: host or cells: Chem-1 cell line
T1 sequence (P41597 1-360 isoform P41597-2): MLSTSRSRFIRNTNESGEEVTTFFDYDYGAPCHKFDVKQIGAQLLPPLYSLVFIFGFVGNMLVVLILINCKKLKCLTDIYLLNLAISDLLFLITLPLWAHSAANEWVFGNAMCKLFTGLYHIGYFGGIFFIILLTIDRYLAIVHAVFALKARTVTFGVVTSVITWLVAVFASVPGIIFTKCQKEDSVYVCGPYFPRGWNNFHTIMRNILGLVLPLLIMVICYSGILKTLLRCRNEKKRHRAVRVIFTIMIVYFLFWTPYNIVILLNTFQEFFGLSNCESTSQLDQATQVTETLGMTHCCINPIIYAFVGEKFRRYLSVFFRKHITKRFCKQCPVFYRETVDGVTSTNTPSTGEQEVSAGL
Procedure, shortened: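 Inhibition of MCP-1-evoked Ca2+ release was measured over 120 s by fluorescence imaging in Fluo-4-loaded, human CCR2-transfected Chem-1 cells. Compounds, tested in 10-point 1:3.16 series, were added 10 min before agonist at its EC50 (typically about 5 nM). IC50 values were obtained by 4-parameter logistic fitting.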

murine CCR2 [1] = biological target: T2, murine CCR2 (Mus musculus, UniProt P51683); assay: Functional β-arrestin recruiting test with murine MCP-1 (B-2b); details: U2OS β-arrestin cell line transfected with murine CCR2; agonist murine MCP-1; in some cases means of several determinations
T2 construct: host or cells: U2OS β-arrestin cell line
Procedure, shortened: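 In a PathHunter β-galactosidase complementation assay, U2OS cells expressing murine CCR2 were preincubated 10 min with compound (10-point, 1:3.16 dilutions), then challenged with murine MCP-1 at its predetermined EC50 for 90 min at 37 °C. Luminescence was read after 60 min, and IC50 was fitted with a 4-parameter Hill function.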

murine CCR2 [2] = biological target: T2, murine CCR2; assay: Functional β-arrestin recruiting test with human MCP-1 (B-2a); details: U2OS β-arrestin cell line transfected with murine CCR2; agonist human MCP-1 at EC50 (about 3 nM); in some cases means of several determinations
Procedure, shortened: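 Antagonist mode in U2OS cells expressing murine CCR2, read by PathHunter β-galactosidase complementation luminescence. Cells pre-incubated 10 min with 10-point compound dilutions (1:3.16 steps), then stimulated with human MCP-1 at its EC50 (usually about 3 nM) for 90 min at 37° C.; IC50 from 4-parameter logistic fit.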

T2 sequence (P51683 whole entry): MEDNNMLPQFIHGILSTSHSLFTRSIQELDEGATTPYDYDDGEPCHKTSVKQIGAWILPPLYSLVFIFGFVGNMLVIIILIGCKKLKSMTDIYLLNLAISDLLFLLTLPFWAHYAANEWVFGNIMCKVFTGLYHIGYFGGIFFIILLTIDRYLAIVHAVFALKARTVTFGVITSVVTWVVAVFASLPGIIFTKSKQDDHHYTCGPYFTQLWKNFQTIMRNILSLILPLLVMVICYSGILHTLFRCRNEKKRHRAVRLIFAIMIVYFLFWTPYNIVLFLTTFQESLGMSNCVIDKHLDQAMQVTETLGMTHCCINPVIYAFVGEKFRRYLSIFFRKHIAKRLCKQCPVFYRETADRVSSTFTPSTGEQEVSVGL

SMILES | IC50 (human CCR2) [µM] | IC50 (murine CCR2 [1]) [µM] | IC50 (murine CCR2 [2]) [µM]
O=c1[nH]c(-c2ncccc2F)nc(C(F)(F)F)c1Oc1ccc(Cl)c(Cl)c1 [Example 15, 5-(3,4-dichlorophenoxy)-2-(3-fluoropyridin-2-yl)-6-(trifluoromethyl)pyrimidin-4(3H)-one] | 0.002 | 0.144 | 0.03
O=c1[nH]c(-c2ncccc2Cl)nc(C(F)(F)F)c1Cc1ccc(Cl)c(Cl)c1 [Example 16, 2-(3-chloropyridin-2-yl)-5-(3,4-dichlorobenzyl)-6-(trifluoromethyl)pyrimidin-4(3H)-one] | 0.0021 | 0.307 | 0.021
O=c1[nH]c(-c2ncccc2F)nc(C(F)(F)F)c1Cc1ccc(Cl)c(Cl)c1 [Example 17, 5-(3,4-dichlorobenzyl)-2-(3-fluoropyridin-2-yl)-6-(trifluoromethyl)pyrimidin-4(3H)-one] | 0.0014 | 0.191 | 0.043
COc1cccnc1-c1nc(C(F)(F)F)c(Oc2ccc(Cl)c(Cl)c2)c(=O)[nH]1 [Example 24, 5-(3,4-dichlorophenoxy)-2-(3-methoxypyridin-2-yl)-6-(trifluoromethyl)pyrimidin-4(3H)-one] | 0.0004 | 0.054 | 0.0082
O=c1[nH]c(-c2ncccc2Cl)nc(C(F)(F)F)c1Cc1ccc(Cl)c(C(F)(F)F)c1 [Example 35, 2-(3-chloropyridin-2-yl)-5-[4-chloro-3-(trifluoromethyl)benzyl]-6-(trifluoromethyl)pyrimidin-4(3H)-one] | 0.0015 | 0.16 | 0.035
COc1ncccc1-c1nc(C(F)(F)F)c(Oc2ccc(Cl)c(C(F)(F)F)c2)c(=O)[nH]1 [Example 37, 5-[4-chloro-3-(trifluoromethyl)phenoxy]-2-(2-methoxypyridin-3-yl)-6-(trifluoromethyl)pyrimidin-4(3H)-one] | 0.0009 | 0.122 | 0.04
O=c1[nH]c(-c2ncccc2Cl)nc(C(F)(F)F)c1Oc1ccc(Cl)c(C(F)(F)F)c1 [Example 38, 2-(3-chloropyridin-2-yl)-5-[4-chloro-3-(trifluoromethyl)phenoxy]-6-(trifluoromethyl)pyrimidin-4(3H)-one] | 0.0003 | 0.0089 | 0.0051
O=c1[nH]c(-c2ncccc2F)nc(C(F)(F)F)c1Oc1ccc(Cl)c(C(F)(F)F)c1 [Example 39, 5-[4-chloro-3-(trifluoromethyl)phenoxy]-2-(3-fluoropyridin-2-yl)-6-(trifluoromethyl)pyrimidin-4(3H)-one] | 0.0009 | 0.05 | 0.02
COc1cccnc1-c1nc(C(F)(F)F)c(Oc2ccc(Cl)c(C(F)(F)F)c2)c(=O)[nH]1 [Example 40, 5-[4-chloro-3-(trifluoromethyl)phenoxy]-2-(3-methoxypyridin-2-yl)-6-(trifluoromethyl)pyrimidin-4(3H)-one] | 0.0008 | 0.044 | 0.012
COc1ncccc1-c1nc(C(F)(F)F)c(Oc2ccc(Cl)c(Cl)c2)c(=O)[nH]1 [Example 42] | 0.0015 | 0.812 | 0.044
Nc1cccc(-c2nc(C(F)(F)F)c(Oc3ccc(Cl)c(C(F)(F)F)c3)c(=O)[nH]2)n1 [Example 44, 2-(6-aminopyridin-2-yl)-5-[4-chloro-3-(trifluoromethyl)phenoxy]-6-(trifluoromethyl)pyrimidin-4(3H)-one] | 0.0022 | 0.222 | 0.074
Nc1ccnc(-c2nc(C(F)(F)F)c(Oc3ccc(Cl)c(C(F)(F)F)c3)c(=O)[nH]2)c1 [Example 45, 2-(4-aminopyridin-2-yl)-5-[4-chloro-3-(trifluoromethyl)phenoxy]-6-(trifluoromethyl)pyrimidin-4(3H)-one] | 0.0047 | 0.553 | 0.086
Nc1cnn(-c2nc(C(F)(F)F)c(Oc3ccc(Cl)c(Cl)c3)c(=O)[nH]2)c1 [Example 47, 2-(4-Amino-1H-pyrazol-1-yl)-5-(3,4-dichlorophenoxy)-6-(trifluoromethyl)pyrimidin-4(3H)-one] | 0.001 | 0.095 | 0.0036
O=c1[nH]c(-c2cc[nH]n2)nc(C(F)(F)F)c1Oc1ccc(Cl)c(Cl)c1 [Example 49, 5-(3,4-Dichlorophenoxy)-2-(1H-pyrazol-3-yl)-6-(trifluoromethyl)pyrimidin-4(3H)-one] | 0.0006 | 0.012 | 0.0025
O=c1[nH]c(-n2cccn2)nc(C(F)(F)F)c1Oc1ccc(Cl)c(Cl)c1 [Example 51, 5-(3,4-dichlorophenoxy)-2-(1H-pyrazol-1-yl)-6-(trifluoromethyl)pyrimidin-4(3H)-one] | 0.0005 | 0.112 | 0.02

Results, then the molecule that gave them:

IC50 (human CCR2) [µM] | IC50 (murine CCR2 [1]) [µM] | IC50 (murine CCR2 [2]) [µM] | SMILES
0.0013 | 0.439 | 0.085 | Cn1cnc(-c2nc(C(F)(F)F)c(Cc3ccc(Cl)c(Cl)c3)c(=O)[nH]2)c1 [Example 52, 5-(3,4-dichlorobenzyl)-2-(1-methyl-1H-imidazol-4-yl)-6-(trifluoromethyl)pyrimidin-4(3H)-one]
0.0018 | 0.44 | 0.067 | O=c1[nH]c(-n2cccn2)nc(C(F)(F)F)c1Cc1ccc(Cl)c(Cl)c1 [Example 53, 5-(3,4-dichlorobenzyl)-2-(1H-pyrazol-1-yl)-6-(trifluoromethyl)pyrimidin-4(3H)-one]
0.0028 | 0.458 | 0.051 | Cc1cc(-c2nc(C(F)(F)F)c(Oc3ccc(Cl)c(Cl)c3)c(=O)[nH]2)nn1C [Example 54, 5-(3,4-dichlorophenoxy)-2-(1,5-dimethyl-1H-pyrazol-3-yl)-6-(trifluoromethyl)pyrimidin-4(3H)-one]
0.0006 | 0.106 | 0.012 | Cn1cnc(-c2nc(C(F)(F)F)c(Oc3ccc(Cl)c(C(F)(F)F)c3)c(=O)[nH]2)c1 [Example 59, 5-[4-chloro-3-(trifluoromethyl)phenoxy]-2-(1-methyl-1H-imidazol-4-yl)-6-(trifluoromethyl)pyrimidin-4(3H)-one]
0.0003 | 0.0048 | 0.0018 | O=c1[nH]c(-c2cc[nH]n2)nc(C(F)(F)F)c1Oc1ccc(Cl)c(C(F)(F)F)c1 [Example 65, 5-[4-chloro-3-(trifluoromethyl)phenoxy]-2-(1H-pyrazol-3-yl)-6-(trifluoromethyl)pyrimidin-4(3H)-one]
0.0008 | 0.154 | 0.056 | O=c1[nH]c(-c2cn[nH]c2)nc(C(F)(F)F)c1Oc1ccc(Cl)c(C(F)(F)F)c1 [Example 70, 5-[4-chloro-3-(trifluoromethyl)phenoxy]-2-(1H-pyrazol-4-yl)-6-(trifluoromethyl)pyrimidin-4(3H)-one]
0.003 | 1.08 | 0.057 | O=c1[nH]c(-n2cccn2)nc(C(F)(F)F)c1Cc1ccc(Cl)c(C(F)(F)F)c1 [Example 71, 5-[4-chloro-3-(trifluoromethyl)benzyl]-2-(1H-pyrazol-1-yl)-6-(trifluoromethyl)pyrimidin-4(3H)-one]
0.0004 | 0.037 | 0.012 | O=c1[nH]c(-n2cccn2)nc(C(F)(F)F)c1Oc1ccc(Cl)c(C(F)(F)F)c1 [Example 73, 5-[4-chloro-3-(trifluoromethyl)phenoxy]-2-(1H-pyrazol-1-yl)-6-(trifluoromethyl)pyrimidin-4(3H)-one]
0.0011 | 0.059 | 0.0029 | O=c1[nH]c(-c2n[nH]cc2Cl)nc(C(F)(F)F)c1Oc1ccc(Cl)c(Cl)c1 [Example 74, 2-(4-chloro-1H-pyrazol-3-yl)-5-(3,4-dichlorophenoxy)-6-(trifluoromethyl)pyrimidin-4(3H)-one]
0.0013 | 0.102 | 0.029 | O=c1[nH]c(-c2n[nH]cc2Cl)nc(C(F)(F)F)c1Cc1ccc(Cl)c(Cl)c1 [Example 75, 2-(4-chloro-1H-pyrazol-3-yl)-5-(3,4-dichlorobenzyl)-6-(trifluoromethyl)pyrimidin-4(3H)-one]
0.0015 | 0.111 | 0.026 | O=c1[nH]c(-c2n[nH]cc2Cl)nc(C(F)(F)F)c1Cc1ccc(Cl)c(C(F)(F)F)c1 [Example 76, 2-(4-chloro-1H-pyrazol-3-yl)-5-[4-chloro-3-(trifluoromethyl)benzyl]-6-(trifluoromethyl)pyrimidin-4(3H)-one]
